≈ marks a conversion by molar mass, not a printed value.
Experiments:
HIV integrase = HIV integrase (Human immunodeficiency virus type 1 group M subtype B, UniProt P04585); experiment: inhibitory activities against integrase (Experimental Example 1); format: biochemical; conditions: integrase inhibition, OD405 nm plate assay; read-out: Experimental example 1 (IC50, ng/ml) (converted)
Method: The inhibitory activities against integrase were determined by the assay described below.
A substrate DNA, solution (2 pmol/μl) and a target DNA solution (5 pmol/μl) were prepared in the manner as described in Experimental example 1 of WO 2004/024693. Before using the DNA solutions, complementary chains were annealed by slowly cooling after boiling. Substrate DNA and target DNA had sequences as described in that Experimental example.
Streptavidin, obtained from Vector Laboratories, was dissolved in 0.1 M carbonate buffer (composition: 90 mM Na2CO3, 10 mM NaHCO3) at concentration of 40 μg/ml. After coating each well of immunoplates (obtained from NUNC) with 50 μl of the above solution at 4° C. over night, each well was washed twice with PBS (composition: 13.7 mM NaCl, 0.27 mM KCl, 0.43 mM Na2HPO4, 0.14 mM KH2PO4) and blocked with 300 μl of 1% skim milk in PBS for 30 min. Additionally, each well was washed twice with PBS and added 50 μl of substrate DNA solution (2 pmol/μl). The immunoplates were kept at room temperature for 30 min while shaking. Then, each well was washed twice with PBS and once with H2O.
Subsequently, in the each well prepared above were added 51 μl of the reaction solution prepared from 12 μl of the buffer (composition: 150 mM MOPS (pH 7.2), 75 mM MnCl2, 50 mM 2-mercaptoethanol, 25% glycerol, 500 μg/ml bovine serum albumin-fraction V), and 39 μl of the distilled water. Then 9 μl of an integrase solution (30 pmol) was added and mixed well. In the well of negative control (NC) was added 9 μl of the integrase dilution buffer (composition: 20 mM MOPS (pH7.2), 400 mM potassium glutamate, 1 mM EDTA, 0.1% NP-40, 20% glycerol, 1 mM DTT, 4M urea), and mixed well using a plate mixer.
The plates were incubated at 30° C. for 60 minutes. The reaction solution was removed and washed three times with 250 μl of washing buffer (composition: 150 mM MOPS (pH7.2), 50 mM 2-mercaptoethanol, 25% glycerol, 500 μg/ml bovine serum albumin-fraction V).
Then each well was added with 53 μl of reaction solution prepared from 12 μl of buffer (composition: 150 mM MOPS (pH7.2), 75 mM MgCl2, 50 mM 2-mercaptoethanol, 25% glycerol, 500 μg/ml bovine serum albumin-fraction V) and 41 μl of distilled water. Further, each well was added with 6 μl of DMSO solution of a compound to be tested, and the well of positive control (PC) was added with 6 μl of DMSO, and mixed well by a plate mixer. After incubating the plate for 30 minutes at 30° C., was added 1 μl of target DNA (5 pmol/μl), and mixed well by a plate mixer.
After incubation for 10 minutes at 30° C., each plate was washed twice with PBS after removal of the reaction solution. […] The optical density at 405 nm (OD405 nm) of each well was measured and the inhibition rate (IC50) was determined by the following expression. […]

HIV (HTLV-IIIB strain) = experiment: inhibitory activities against HIV cell proliferation, MT-4 cells, MTT (Experimental Example 2); format: cell-based; conditions: Human immunodeficiency virus 1, IIIB, MT4, 96 h, concentration at which 50% of cytopathy caused by viruses was inhibited, 4 days, read-out: Experimental example 2 (EC50, ng/ml)
Method: The inhibitory activities against HIV cell proliferation were determined by the assay method described below. • (1) HIV (HTLV-IIIB strain) persistence infection human T-cell strain Molt-4 clone 8 was cultured on RPMI-1640 medium supplemented with 10% fetal bovine serum, and the supernatant was measured for viral titer after filtration, and stored at −80° C. On the other hand, each anti-HIV active agent was diluted in the above culture medium to a predetermined concentration, and each well of a 96-well microplate was added with 50 μl of the resultant active agent solution. Then, 100 μl (3.5×10^4 cells) each of MT-4 cell suspension was poured into each well, followed by each 50 μl (60 pfu (plaque forming unit)) of the HIV-containing supernatant diluted with the above culture medium. • (2) After incubating for 4 days in a carbon dioxide incubator at 37° C., every well was added with 30 μl of 3-(4,5-dimethylthiazole-2-yl)-2,5-diphenyltetrazolium bromide (MTT) 5 mg/ml), PBS, and incubated for another 1 hour. At this time, since living cells reduce MTT to cause precipitation of formazane, 150 μl of cell supernatant was removed from each well, and instead 150 μl of lysis solution (isopropanol supplemented with 10% Triton X-100 and 0.4% (v/v) HCl) was added, to make formazane eluate by shaking with a plate mixer. […] The concentration of Compound at which 50% of cytopathy caused by viruses was inhibited was defined as EC50.

Cc1nc(-c2nnc(Cc3ccc(F)cc3)o2)c(O)c(=O)[nH]1 [Comparative example 1, reference compound]
IC50 (HIV integrase): 0.0926 µM
EC50 (HIV (HTLV-IIIB strain)): 19000 ng/mL (≈ 62.9 µM)

CC(=O)N1CCC[C@H]1c1nc(-c2nnc(Cc3ccc(F)cc3)o2)c(O)c(=O)n1C [Compound I-2]
melting point: 170 to 172 °C
IC50 (HIV integrase): 0.138 µM
EC50 (HIV (HTLV-IIIB strain)): 38 ng/mL (≈ 0.0919 µM)

CN(C(=O)c1ccccn1)C(C)(C)c1nc(-c2ncc(Cc3ccc(F)cc3)s2)c(O)c(=O)[nH]1 [Compound I-45]
melting point: 245 °C
IC50 (HIV integrase): 0.0121 µM
EC50 (HIV (HTLV-IIIB strain)): 5.6 ng/mL (≈ 0.0117 µM)

CCN1C(C)n2c(nc(-c3ncc(Cc4ccc(F)cc4)s3)c(O)c2=O)C1(C)C (centres unmarked) [Compound I-60]
melting point: 165 to 168 °C
IC50 (HIV integrase): 0.0159 µM
EC50 (HIV (HTLV-IIIB strain)): 18 ng/mL (≈ 0.0434 µM)
